Legend:
P2X7 receptor = P2X7 receptor (Homo sapiens (Human), UniProt Q99572); test: Human P2X7 channel calcium-influx assay (Fluo-8 NW, FLIPR TETRA, Bz-ATP stimulation); format: cell-based; conditions: HEK-293 cells stably transfected with P2X7 receptor, Low Divalent Cation Assay Buffer, read-out: hP2X7 IC50
Description: (§1) Extracellular binding of Bz-ATP to P2X7 receptor opens the channel and allows Ca^2+ influx into the cells. This Ca^2+ entry was measured in HEK-293 cells stably transfected with P2X7 receptor using Screen Quest™ Fluo-8 No Wash Calcium Assay Kit (AAt Bioquest®, cat. 36316). Once inside the cell, the lipophilic blocking groups of Fluo-8 are cleaved by non-specific cell esterases, resulting in a negatively-charged fluorescent dye that stays inside cells. Its fluorescence increases upon binding to calcium. When HEK-293/P2X7 cells are stimulated with Bz-ATP, Ca^2+ enters the cells and the fluorescence of Fluo-8 NW increases.
(§2) HEK-293 cells stably transfected with P2X7 receptor were seeded overnight in growth medium at 10,000 to 20,000 cells/well in 384-well plate. 24 hours later, the medium was removed, and the cells were pre-loaded at RT for 1 hour with 20 μL/w of Fluo-8 NW. Then 10 μL/w of test compounds and reference antagonist A438079 at 3X-concentration were injected with the […] and the kinetic response over a period of five minutes was monitored.

mP2X7 = mP2X7 (Mus musculus (Mouse), UniProt Q9Z1M0); test: mP2X7 channel calcium-influx assay (Fluo-8 NW, FLIPR TETRA, Bz-ATP stimulation); format: cell-based
Sequence of mP2X7 (Q9Z1M0 whole entry): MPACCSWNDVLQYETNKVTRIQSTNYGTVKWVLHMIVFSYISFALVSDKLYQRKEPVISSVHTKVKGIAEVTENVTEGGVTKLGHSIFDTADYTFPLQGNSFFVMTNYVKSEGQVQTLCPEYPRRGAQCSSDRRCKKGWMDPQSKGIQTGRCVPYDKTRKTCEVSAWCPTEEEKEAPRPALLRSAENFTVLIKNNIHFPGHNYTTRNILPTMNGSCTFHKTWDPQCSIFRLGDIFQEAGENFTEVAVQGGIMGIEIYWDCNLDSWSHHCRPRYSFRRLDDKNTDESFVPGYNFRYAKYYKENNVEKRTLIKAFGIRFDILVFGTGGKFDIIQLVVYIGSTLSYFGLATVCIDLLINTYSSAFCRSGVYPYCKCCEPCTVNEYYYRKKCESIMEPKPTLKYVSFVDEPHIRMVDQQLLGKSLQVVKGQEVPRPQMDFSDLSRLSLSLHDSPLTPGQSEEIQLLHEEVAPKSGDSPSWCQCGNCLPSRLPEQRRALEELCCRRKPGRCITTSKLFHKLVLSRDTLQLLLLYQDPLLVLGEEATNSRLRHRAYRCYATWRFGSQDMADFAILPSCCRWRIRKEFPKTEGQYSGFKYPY
Description: as §1, §2

Sequence of P2X7 receptor (Q99572 whole entry): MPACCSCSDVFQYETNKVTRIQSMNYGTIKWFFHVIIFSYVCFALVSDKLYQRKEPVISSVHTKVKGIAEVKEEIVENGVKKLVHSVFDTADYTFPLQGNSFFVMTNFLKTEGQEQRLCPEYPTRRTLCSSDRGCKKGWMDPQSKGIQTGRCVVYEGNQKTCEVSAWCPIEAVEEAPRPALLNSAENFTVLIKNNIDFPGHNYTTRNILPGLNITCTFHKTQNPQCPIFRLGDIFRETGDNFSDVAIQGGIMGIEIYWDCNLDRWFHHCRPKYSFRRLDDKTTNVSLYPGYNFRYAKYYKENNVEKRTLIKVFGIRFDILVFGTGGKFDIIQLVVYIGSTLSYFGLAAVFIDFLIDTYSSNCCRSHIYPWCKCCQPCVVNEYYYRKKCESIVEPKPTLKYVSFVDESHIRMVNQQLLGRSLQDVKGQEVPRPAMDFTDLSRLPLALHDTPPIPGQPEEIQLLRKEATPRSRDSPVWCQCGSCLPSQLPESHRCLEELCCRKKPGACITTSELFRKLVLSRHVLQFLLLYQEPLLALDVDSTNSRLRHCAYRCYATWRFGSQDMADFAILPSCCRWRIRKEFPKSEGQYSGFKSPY

Row | Compound | IC50 (P2X7 receptor) [nM] | IC50 (mP2X7) [nM]
1 | N#Cc1cccnc1OC1CCN(C(CNC(=O)c2c(F)cccc2Cl)c2scnc2C(F)F)CC1 (stereo not shown) [Example 36, 2-Chloro-N-(2-{4-[(3-cyanopyridin-2-yl)oxy]piperidin-1-yl}-2-[4-(difluoromethyl)-1,3-thiazol-5-yl]ethyl)-6-fluorobenzamide] | 53.8 | 126
2 | O=C(NCC(c1scnc1C(F)F)N1CCC(Oc2nnnn2-c2ccccc2)CC1)c1c(F)cccc1Cl (stereo not shown) [Example 25, 2-Chloro-N-{2-[4-(difluoromethyl)-1,3-thiazol-5-yl]-2-{4-[(1-phenyl-1H-1,2,3,4-tetrazol-5-yl)oxy]piperidin-1-yl}ethyl}-6-fluorobenzamide] | 57.7 | 45.8
3 | O=C(NCC(c1scnc1C(F)F)N1CCC(Oc2ncccn2)CC1)c1c(F)cccc1Cl (stereo not shown) [Example 4, 2-chloro-N-{2-[4-(difluoromethyl)-1,3-thiazol-5-yl]-2-[4-(pyrimidin-2-yloxy)piperidin-1-yl]ethyl}-6-fluorobenzamide] | 58.2 | 408
4 | O=C(NCC(c1scnc1C(F)F)N1CCC(Oc2ccnc(F)n2)CC1)c1c(F)cccc1Cl (stereo not shown) [Example 35, 2-Chloro-N-{2-[4-(difluoromethyl)-1,3-thiazol-5-yl]-2-{4-[(2-fluoropyrimidin-4-yl)oxy]piperidin-1-yl}ethyl}-6-fluorobenzamide] | 71.1 | 190
5 | Cn1ncc2c(OC3CCN(C(CNC(=O)c4c(F)cccc4Cl)c4scnc4C(F)F)CC3)ncnc21 (stereo not shown) [Example 51, 2-Chloro-N-{2-[4-(difluoromethyl)-1,3-thiazol-5-yl]-2-[4-({1-methyl-1H-pyrazolo[3,4-d]pyrimidin-4-yl}oxy)piperidin-1-yl]ethyl}-6-fluorobenzamide] | 62.2 | 68.7
6 | O=C(NCC(c1scnc1C(F)F)N1CCC(Oc2nccc3ncccc23)CC1)c1c(F)cccc1Cl (stereo not shown) [Example 49, 2-Chloro-N-{2-[4-(difluoromethyl)-1,3-thiazol-5-yl]-2-[4-(1,6-naphthyridin-5-yloxy)piperidin-1-yl]ethyl}-6-fluorobenzamide] | 19.4 | 19.5
7 | O=C(NCC(c1scnc1C(F)F)N1CCC(Oc2ncccc2C(F)(F)F)CC1)c1c(F)cccc1Cl (stereo not shown) [Example 59, 2-Chloro-N-{2-[4-(difluoromethyl)-1,3-thiazol-5-yl]-2-(4-{[3-(trifluoromethyl)pyridin-2-yl]oxy}piperidin-1-yl)ethyl}-6-fluorobenzamide] | 29.4 | 56.1
8 | O=C(NCC(c1scnc1C(F)F)N1CCC(Oc2nc(-c3ccccc3)no2)CC1)c1c(F)cccc1Cl (stereo not shown) [Example 24, 2-Chloro-N-{2-[4-(difluoromethyl)-1,3-thiazol-5-yl]-2-{4-[(3-phenyl-1,2,4-oxadiazol-5-yl)oxy]piperidin-1-yl}ethyl}-6-fluorobenzamide] | 98.1 | 32.4
9 | COc1nccc(OC2CCN(C(CNC(=O)c3c(F)cccc3Cl)c3scnc3C(F)F)CC2)n1 (stereo not shown) [Example 63, 2-Chloro-N-{2-[4-(difluoromethyl)-1,3-thiazol-5-yl]-2-{4-[(2-methoxypyrimidin-4-yl)oxy]piperidin-1-yl}ethyl}-6-fluorobenzamide] | 41.2 | 49.3
10 | N#Cc1nccnc1OC1CCN(C(CNC(=O)c2c(F)cccc2Cl)c2scnc2C(F)F)CC1 (stereo not shown) [Example 17, 2-Chloro-N-(2-{4-[(3-cyanopyrazin-2-yl)oxy]piperidin-1-yl}-2-[4-(difluoromethyl)-1,3-thiazol-5-yl]ethyl)-6-fluorobenzamide] | 55 | 320
11 | Cc1c(F)ncnc1OC1CCN(C(CNC(=O)c2c(F)cccc2Cl)c2scnc2C(F)F)CC1 (stereo not shown) [Example 40, 2-Chloro-N-{2-[4-(difluoromethyl)-1,3-thiazol-5-yl]-2-{4-[(6-fluoro-5-methylpyrimidin-4-yl)oxy]piperidin-1-yl}ethyl}-6-fluorobenzamide] | 32.7 | 50.6
12 | O=C(NCC(c1scnc1C(F)F)N1CCC(Oc2cc(F)ncn2)CC1)c1c(F)cccc1Cl (stereo not shown) [Example 31, 2-Chloro-N-{2-[4-(difluoromethyl)-1,3-thiazol-5-yl]-2-{4-[(6-fluoropyrimidin-4-yl)oxy]piperidin-1-yl}ethyl}-6-fluorobenzamide] | 61.2 | 136
13 | Cc1nc(F)cc(OC2CCN(C(CNC(=O)c3c(F)cccc3Cl)c3scnc3C(F)F)CC2)n1 (stereo not shown) [Example 39, 2-Chloro-N-{2-[4-(difluoromethyl)-1,3-thiazol-5-yl]-2-{4-[(6-fluoro-2-methylpyrimidin-4-yl)oxy]piperidin-1-yl}ethyl}-6-fluorobenzamide] | 51.1 | 44.6
14 | N#Cc1cccc(OC2CCN(C(CNC(=O)c3c(F)cccc3Cl)c3scnc3C(F)F)CC2)n1 (stereo not shown) [Example 37, 2-Chloro-N-(2-{4-[(6-cyanopyridin-2-yl)oxy]piperidin-1-yl}-2-[4-(difluoromethyl)-1,3-thiazol-5-yl]ethyl)-6-fluorobenzamide] | 28 | 28.5
15 | COCCc1nsc(OC2CCN(C(CNC(=O)c3c(F)cccc3Cl)c3scnc3C(F)F)CC2)n1 (stereo not shown) [Example 23, 2-Chloro-N-{2-[4-(difluoromethyl)-1,3-thiazol-5-yl]-2-(4-{[3-(2-methoxyethyl)-1,2,4-thiadiazol-5-yl]oxy}piperidin-1-yl)ethyl}-6-fluorobenzamide] | 73.6 | 183
16 | O=C(NCC(c1scnc1C(F)F)N1CCC(Oc2ccccn2)CC1)c1c(F)cccc1Cl (stereo not shown) [Example 1, 2-chloro-N-{2-[4-(difluoromethyl)-1,3-thiazol-5-yl]-2-[4-(pyridin-2-yloxy)piperidin-1-yl]ethyl}-6-fluorobenzamide] | 21.7 | 53.5

The remaining lines, values ahead:

Row | IC50 (P2X7 receptor) [nM] | IC50 (mP2X7) [nM] | Compound
17 | 74.5 | 44.3 | O=C(NCC(c1scnc1C(F)F)N1CCC(COc2cc(C(F)(F)F)ncn2)CC1)c1c(F)cccc1Cl (stereo not shown) [Example 115, 2-Chloro-N-{2-[4-(difluoromethyl)-1,3-thiazol-5-yl]-2-[4-({[6-(trifluoromethyl)pyrimidin-4-yl]oxy}methyl)piperidin-1-yl]ethyl}-6-fluorobenzamide]
18 | 20 | 25.7 | N#Cc1ncccc1OCC1CCN(C(CNC(=O)c2c(F)cccc2Cl)c2scnc2C(F)F)CC1 (stereo not shown) [Example 90, 2-Chloro-N-[2-(4-{[(2-cyanopyridin-3-yl)oxy]methyl}piperidin-1-yl)-2-[4-(difluoromethyl)-1,3-thiazol-5-yl]ethyl]-6-fluorobenzamide]
19 | 62.3 | 64.5 | Cc1nc(C)c(F)c(OC2CCN(C(CNC(=O)c3c(F)cccc3Cl)c3scnc3C(F)F)CC2)n1 (stereo not shown) [Example 67, 2-Chloro-N-{2-[4-(difluoromethyl)-1,3-thiazol-5-yl]-2-{4-[(5-fluoro-2,6-dimethylpyrimidin-4-yl)oxy]piperidin-1-yl}ethyl}-6-fluorobenzamide]
20 | 50 | 101 | O=C(NCC(c1scnc1C(F)F)N1CCC(Oc2cnccn2)CC1)c1c(F)cccc1Cl (stereo not shown) [Example 70, 2-Chloro-N-{2-[4-(difluoromethyl)-1,3-thiazol-5-yl]-2-[4-(pyrazin-2-yloxy)piperidin-1-yl]ethyl}-6-fluorobenzamidev]
21 | 32.5 | 16.4 | O=C(NCC(c1scnc1C(F)F)N1CCC(COc2ncccc2Cl)CC1)c1c(F)cccc1Cl (stereo not shown) [Example 120, 2-Chloro-N-[2-(4-{[(3-chloropyridin-2-yl)oxy]methyl}piperidin-1-yl)-2-[4-(difluoromethyl)-1,3-thiazol-5-yl]ethyl]-6-fluorobenzamide]
22 | 25.6 | 13.2 | N#Cc1cccnc1OCC1CCN(C(CNC(=O)c2c(F)cccc2Cl)c2scnc2C(F)F)CC1 (stereo not shown) [Example 108, 2-Chloro-N-[2-(4-{[(3-cyanopyridin-2-yl)oxy]methyl}piperidin-1-yl)-2-[4-(difluoromethyl)-1,3-thiazol-5-yl]ethyl]-6-fluorobenzamide]
23 | 55.2 | 24.2 | O=C(NCC(c1scnc1C(F)F)N1CCC(COc2ccnc(F)n2)CC1)c1c(F)cccc1Cl (stereo not shown) [Example 107, 2-Chloro-N-{2-[4-(difluoromethyl)-1,3-thiazol-5-yl]-2-(4-{[(2-fluoropyrimidin-4-yl)oxy]methyl}piperidin-1-yl)ethyl}-6-fluorobenzamide]
24 | 48.4 | 30.4 | O=C(NCC(c1scnc1C(F)F)N1CCC(COc2cncc(F)n2)CC1)c1c(F)cccc1Cl (stereo not shown) [Example 105, 2-Chloro-N-{2-[4-(difluoromethyl)-1,3-thiazol-5-yl]-2-(4-{[(6-fluoropyrazin-2-yl)oxy]methyl}piperidin-1-yl)ethyl}-6-fluorobenzamide]
25 | 27.8 | 25.2 | Cc1cccc(OCC2CCN(C(CNC(=O)c3c(F)cccc3Cl)c3scnc3C(F)F)CC2)n1 (stereo not shown) [Example 88, 2-Chloro-N-{2-[4-(difluoromethyl)-1,3-thiazol-5-yl]-2-(4-{[(6-methylpyridin-2-yl)oxy]methyl}piperidin-1-yl)ethyl}-6-fluorobenzamide]
26 | 22.5 | 33.5 | N#Cc1nccnc1OCC1CCN(C(CNC(=O)c2c(F)cccc2Cl)c2scnc2C(F)F)CC1 (stereo not shown) [Example 92, 2-Chloro-N-[2-(4-{[(3-cyanopyrazin-2-yl)oxy]methyl}piperidin-1-yl)-2-[4-(difluoromethyl)-1,3-thiazol-5-yl]ethyl]-6-fluorobenzamide]

Reference: patent US20240034737A1, “Heterocyclic Derivatives as P2X7 Receptor Antagonists” (BREYE THERAPEUTICS APS, priority 2020, published 2024)
